Results on 28 compounds are retold here after ChEMBL document CHEMBL1136812, “Structure-activity relationships of dimethindene derivatives as new M2-selective muscarinic receptor antagonists” (J Med Chem, 2003).

What all share (format): cell-based
Assay [1] concerns the target T1, Muscarinic acetylcholine receptor M1 (Homo sapiens, UniProt P11229).
T1 sequence (P11229 whole entry): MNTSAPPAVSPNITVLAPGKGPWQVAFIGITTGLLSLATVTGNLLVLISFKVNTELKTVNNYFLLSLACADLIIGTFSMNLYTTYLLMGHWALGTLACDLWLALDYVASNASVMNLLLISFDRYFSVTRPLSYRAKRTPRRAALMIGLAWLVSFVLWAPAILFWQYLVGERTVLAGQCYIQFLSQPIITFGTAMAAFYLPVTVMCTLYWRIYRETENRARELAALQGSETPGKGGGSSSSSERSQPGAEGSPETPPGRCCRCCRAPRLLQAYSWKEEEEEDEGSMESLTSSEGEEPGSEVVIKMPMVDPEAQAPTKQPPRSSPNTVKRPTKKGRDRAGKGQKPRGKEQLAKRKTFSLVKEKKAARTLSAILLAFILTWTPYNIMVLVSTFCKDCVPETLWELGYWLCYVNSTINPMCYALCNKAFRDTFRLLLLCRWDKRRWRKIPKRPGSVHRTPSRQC
Put plainly: Binding affinity towards cloned human muscarinic acetylcholine receptor M1 stably expressed in CHO-K1 cells using [3H]N-methylscopolamine.

For assay [2], the target named is T2, Muscarinic acetylcholine receptor M2 (Homo sapiens, UniProt P08172).
T2 sequence (P08172 whole entry): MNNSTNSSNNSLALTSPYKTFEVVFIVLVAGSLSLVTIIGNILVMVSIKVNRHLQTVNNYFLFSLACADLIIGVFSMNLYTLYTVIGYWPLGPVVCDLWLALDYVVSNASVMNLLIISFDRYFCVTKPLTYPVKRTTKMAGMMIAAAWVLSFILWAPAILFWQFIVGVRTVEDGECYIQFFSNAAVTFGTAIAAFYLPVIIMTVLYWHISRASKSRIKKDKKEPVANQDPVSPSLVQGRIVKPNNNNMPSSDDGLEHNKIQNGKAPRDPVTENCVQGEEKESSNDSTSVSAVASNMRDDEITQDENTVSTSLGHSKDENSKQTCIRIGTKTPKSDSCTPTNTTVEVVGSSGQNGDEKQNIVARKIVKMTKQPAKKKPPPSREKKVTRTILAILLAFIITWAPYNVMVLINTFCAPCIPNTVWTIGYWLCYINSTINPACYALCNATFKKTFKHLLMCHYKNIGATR
In words: Binding affinity towards cloned human muscarinic acetylcholine receptor M2 stably expressed in CHO-K1 cells using [3H]N-methylscopolamine.

Assay [3] addresses T3, Muscarinic acetylcholine receptor M5 (Homo sapiens, UniProt P08912).
T3 sequence (P08912 whole entry): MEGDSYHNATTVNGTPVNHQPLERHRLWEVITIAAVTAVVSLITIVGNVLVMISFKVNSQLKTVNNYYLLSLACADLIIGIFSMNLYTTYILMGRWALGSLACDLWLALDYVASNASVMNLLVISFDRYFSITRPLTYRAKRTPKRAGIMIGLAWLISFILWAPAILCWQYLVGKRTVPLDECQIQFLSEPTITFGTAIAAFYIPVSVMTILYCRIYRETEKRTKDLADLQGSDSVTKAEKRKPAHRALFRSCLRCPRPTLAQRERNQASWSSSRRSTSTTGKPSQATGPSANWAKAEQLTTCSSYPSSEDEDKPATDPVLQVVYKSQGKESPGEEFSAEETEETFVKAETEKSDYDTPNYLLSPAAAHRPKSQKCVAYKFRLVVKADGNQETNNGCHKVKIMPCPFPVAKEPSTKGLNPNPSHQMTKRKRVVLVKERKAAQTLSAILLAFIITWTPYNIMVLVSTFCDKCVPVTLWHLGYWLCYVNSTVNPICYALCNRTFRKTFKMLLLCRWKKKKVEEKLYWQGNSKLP
In words: Binding affinity towards cloned human muscarinic acetylcholine receptor M5 stably expressed in CHO-K1 cells using [3H]N-methylscopolamine.

For assay [4], the target named is T4, Muscarinic acetylcholine receptor M4 (Homo sapiens, UniProt P08173).
T4 sequence (P08173 whole entry): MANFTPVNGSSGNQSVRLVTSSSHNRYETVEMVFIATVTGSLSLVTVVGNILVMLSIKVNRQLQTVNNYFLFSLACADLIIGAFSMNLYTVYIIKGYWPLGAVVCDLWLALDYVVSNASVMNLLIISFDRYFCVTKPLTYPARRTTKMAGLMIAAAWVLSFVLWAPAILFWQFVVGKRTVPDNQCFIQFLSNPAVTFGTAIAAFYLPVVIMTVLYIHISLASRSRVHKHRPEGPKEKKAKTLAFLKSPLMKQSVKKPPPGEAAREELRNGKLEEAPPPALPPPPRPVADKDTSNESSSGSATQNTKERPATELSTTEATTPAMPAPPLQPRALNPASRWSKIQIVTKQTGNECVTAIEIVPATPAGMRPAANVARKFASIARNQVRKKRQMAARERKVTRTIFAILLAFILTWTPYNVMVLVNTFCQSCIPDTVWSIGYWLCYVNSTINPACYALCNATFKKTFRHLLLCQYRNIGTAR
In words: Binding affinity towards cloned human muscarinic acetylcholine receptor M4 stably expressed in CHO-K1 cells using [3H]N-methylscopolamine.

Assay [5] addresses Muscarinic acetylcholine receptor M3 (Homo sapiens, UniProt P20309). In words: Binding affinity towards cloned human muscarinic acetylcholine receptor M3 stably expressed in CHO-K1 cells using [3H]N-methylscopolamine.

Chain of Muscarinic acetylcholine receptor M3 (P20309 whole entry): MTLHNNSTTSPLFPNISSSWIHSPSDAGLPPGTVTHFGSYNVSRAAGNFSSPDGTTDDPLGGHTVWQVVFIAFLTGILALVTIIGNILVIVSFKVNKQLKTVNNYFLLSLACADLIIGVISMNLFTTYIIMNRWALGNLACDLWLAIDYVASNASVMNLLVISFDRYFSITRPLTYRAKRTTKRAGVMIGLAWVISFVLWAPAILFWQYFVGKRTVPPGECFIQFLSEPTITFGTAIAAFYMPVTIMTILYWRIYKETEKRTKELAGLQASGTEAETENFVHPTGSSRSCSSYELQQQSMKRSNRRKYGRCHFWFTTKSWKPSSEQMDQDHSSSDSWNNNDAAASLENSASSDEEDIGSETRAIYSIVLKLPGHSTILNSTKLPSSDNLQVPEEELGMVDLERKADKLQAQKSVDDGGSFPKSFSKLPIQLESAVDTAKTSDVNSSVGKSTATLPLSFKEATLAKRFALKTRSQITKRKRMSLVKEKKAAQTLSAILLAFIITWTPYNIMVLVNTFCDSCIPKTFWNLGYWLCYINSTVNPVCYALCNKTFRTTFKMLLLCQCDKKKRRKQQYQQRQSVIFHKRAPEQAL

As to `COc1ccc2c(c1)CC(CCN(C)C)=C2C(C)c1ccccn1` (stereo not given), the inhibitory constant (Ki) in assay [1] was 1550 nM; in assay [2] it was 1070 nM; in assay [3], 6030 nM; in assay [4] it was 4170 nM; in assay [5], 1170 nM.
For `CN(C)CCNC(=O)C1=C(Cc2ccncc2)c2ccccc2C1`, in that order: 53700 nM, 93300 nM, 41700 nM, 87100 nM and 135000 nM.
For `CCN(CC)CCC1=C(C(C)c2ccccn2)c2ccccc2C1` (stereo not given), in that order: 447 nM, 44.7 nM, 2090 nM, 457 nM and 955 nM.
The corresponding values for `CC(C1=C(CCN(C)C)Cc2ccc(Cl)cc21)c1ccccn1` (stereo not given) are 347 nM, 363 nM, 912 nM, 741 nM and 501 nM.
Take `CC(C1=C(CCCN(C)C)Cc2ccccc21)c1ccccn1` (stereo not given): the Ki in assay [1] was 891 nM; in assay [2] it was 263 nM; in assay [3], 3240 nM; in assay [4], 1700 nM; in assay [5], 575 nM.
The corresponding values for `CN(C)CCC1=C(Cc2ccccn2)c2ccccc2C1` are 1580 nM, 234 nM, 3630 nM, 2400 nM and 1550 nM.
With `CN(C)CCOC(=O)C1=C(Cc2cccnc2)c2ccccc2C1`, the Ki in assay [1] was 3550 nM; in assay [2], 6030 nM; in assay [3] it was 11200 nM; in assay [4], 13200 nM; in assay [5], 8130 nM.
As for `CN(C)CCC1=C(Cc2ccncc2)c2ccccc2C1`, the Ki in assay [1] was 4270 nM; in assay [2], 6760 nM; in assay [3], 10200 nM; in assay [4], 8320 nM; in assay [5], 11700 nM.
Turning to `CCCC(C1=C(CCN(C)C)Cc2ccccc21)c1ccccn1` (stereo not given), the Ki in assay [1] is 245 nM; in assay [2], 676 nM; in assay [3], 302 nM; in assay [4], 617 nM; in assay [5], 631 nM.
The corresponding values for `CC(C1=C(CCN(C)C)Cc2ccccc21)c1ccccc1` (stereo not given) are 158 nM, 257 nM, 309 nM, 372 nM and 288 nM.
For `CN(C)CCC1=C(C(c2ccccc2)c2ccccn2)c2ccccc2C1` (stereo not given), in that order: 43.7 nM, 229 nM, 66.1 nM, 129 nM and 67.6 nM.
Consider `CC(C1=C(CN(C)C(C)C)Cc2ccccc21)c1ccccn1` (stereo not given), for which the Ki is 229 nM in assay [1]; 51.3 nM in assay [2]; 1120 nM in assay [3]; 603 nM in assay [4]; 741 nM in assay [5].
Regarding `CN(C)CCOC(=O)C1=C(Cc2ccccn2)c2ccccc2C1`, the Ki was 5370 nM in assay [1]; 4900 nM in assay [2]; 17400 nM in assay [3]; 14800 nM in assay [4]; 8910 nM in assay [5].
The corresponding values for `COc1ccc2c(c1)C(C(C)c1ccccn1)=C(CCN(C)C)C2` (stereo not given) are 3720 nM, 1020 nM, 8910 nM, 8510 nM and 3160 nM.
The corresponding values for `CSc1ccc2c(c1)C(C(C)c1ccccn1)=C(CCN(C)C)C2` (stereo not given) are 871 nM, 912 nM, 3240 nM, 2000 nM and 1050 nM.
On to `CN(C)CCNC(=O)C1=C(Cc2ccccn2)c2ccccc2C1`, for which the Ki is 16200 nM in assay [1]; 14800 nM in assay [2]; 45700 nM in assay [3]; 26900 nM in assay [4]; 24000 nM in assay [5].
With `Cc1ccc2c(c1)C(C(C)c1ccccn1)=C(CCN(C)C)C2` (stereo not given), the inhibition constant Ki in assay [1] is 1620 nM; in assay [2] it was 1950 nM; in assay [3] it was 5890 nM; in assay [4] it was 3240 nM; in assay [5] it was 2510 nM.
The corresponding values for `CC(C1=C(CCN(C)C)Cc2ccc(F)cc21)c1ccccn1` (stereo not given) are 331 nM, 112 nM, 1050 nM, 646 nM and 263 nM.
Regarding `CCC(C1=C(CCN(C)C)Cc2cc(Cl)ccc21)c1ccccn1` (stereo not given), the Ki was 224 nM in assay [1]; 107 nM in assay [2]; 776 nM in assay [3]; 832 nM in assay [4]; 282 nM in assay [5].
As to `CCC(C1=C(CCN(C)C)Cc2ccccc21)c1ccccn1` (stereo not given), the Ki was 240 nM in assay [1]; 97.7 nM in assay [2]; 676 nM in assay [3]; 661 nM in assay [4]; 309 nM in assay [5].
`Cc1ccc2c(c1)CC(CCN(C)C)=C2C(C)c1ccccn1` (stereo not given): the Ki in assay [1] was 562 nM; in assay [2], 589 nM; in assay [3], 1450 nM; in assay [4], 1410 nM; in assay [5], 501 nM.
For `CC(C1=C(CCN2CCCCC2)Cc2ccccc21)c1ccccn1` (stereo not given), the Ki is 1910 nM in assay [1]; 851 nM in assay [2]; 2340 nM in assay [3]; 1910 nM in assay [4]; 1780 nM in assay [5].
For `CC(C1=C(CCN2CCCC2)Cc2ccccc21)c1ccccn1` (stereo not given), the Ki is 1050 nM in assay [1]; 398 nM in assay [2]; 2000 nM in assay [3]; 1230 nM in assay [4]; 1910 nM in assay [5].
For `CN(C)CCC1=C(Cc2cccnc2)c2ccccc2C1`, in that order: 3720 nM, 5370 nM, 7940 nM, 7410 nM and 8130 nM.
Consider `CC(C1=C(CCN(C)C(C)C)Cc2ccccc21)c1ccccn1` (stereo not given), for which the Ki in assay [1] was 871 nM; in assay [2], 145 nM; in assay [3], 2190 nM; in assay [4] it was 1000 nM; in assay [5], 1820 nM.
The corresponding values for `CN(C)CCNC(=O)C1=C(Cc2cccnc2)c2ccccc2C1` are 49000 nM, 39800 nM, 66100 nM, 46800 nM and 49000 nM.
For `CC(C1=C(CCN2CCOCC2)Cc2ccccc21)c1ccccn1` (stereo not given), the Ki in assay [1] was 4370 nM; in assay [2] it was 1450 nM; in assay [3], 2690 nM; in assay [4] it was 4170 nM; in assay [5], 2750 nM.
For `CN(C)CCC1=C(C(C)(C)c2ccccn2)c2ccccc2C1`, in that order: 52.5 nM, 15.5 nM, 372 nM, 81.3 nM and 25.7 nM.

A word on the Ki: it is the equilibrium dissociation constant of an inhibitor or competing ligand from its target. A low value points to tighter binding.
